# Test system: Uterine Eosinophil Peroxidase (EPO)
# Assay: Uterine Eosinophil Peroxidase (EPO) Assay on uteri of dosed OVX rats
# Format: in vivo, Sprague Dawley rats
# Conditions: ovariectomized rats
smiles,measurement,value
C[C@]12CC[C@@H]3c4ccc(O)cc4CC[C@H]3[C@@H]1CC[C@@H]2O [estradiol],"Eosinophil infiltration into the uterus (number of eosinophils in the stromal layer, in words)","substantial, expected increase in eosinophil infiltration"

# Source: US6399634B1, “Benzothiophene compounds, compositions, and methods” (Eli Lilly and Company, priority 1994, dated 2002)
